Several values for one entry are separate records, joined by “and”; a condition that tells them apart may be missing. Equal values may be shown once. Entries after “also recorded” stand apart in the source; their conditions may differ.
Legend:
[1] = Toxicity in mice: necropsy and histopathology; type: in vivo, C57BL/6 mice; parameters: key to BMH, brain multifocal hemorrhage score / HN, hepatocellular necrosis score / RTD, renal tubular dilation score / RTDR, renal tubular degeneration and regeneration score: 0: absent; 1: minimal; 2: mild; 3: moderate; 4: severe; key to HMNH, heart myocardial necrosis and hemorrhage score: 0: no lesions; 1: <5% of myocardium affected; 2: 5-10% affected; 3: 10-25% affected; 4: >25% affected; key to SRPHMV, splenic red pulp histiocytosis with microvesicular vacuolation score: 0: no lesions; 1: lesions present; key to LC, Liver capsule score: 0: normal; 1: segmental subcapsular necrosis +/- neutrophilic infiltrate; Total organ score: scale not given here; conditions: for toxicity after a single i.p. injection: 4.2 µmol with 20 mg P-407, one injection; for BMH, brain multifocal hemorrhage score / HMNH, heart myocardial necrosis and hemorrhage score / HN, hepatocellular necrosis score / LC, Liver capsule score / RTD, renal tubular dilation score / RTDR, renal tubular degeneration and regeneration score / SRPHMV, splenic red pulp histiocytosis with microvesicular vacuolation score / Total organ score / ∆ weight: individual mice
Method: Male C57BL/6 mice of 2 months of age were killed by CO2 asphyxiation and cardiac exsanguination. All mice were weighed, and a complete gross examination of the external and internal organs was performed. […] Formalin-fixed tissues were processed routinely, embedded in paraffin, sectioned at 5 μm and stained with hematoxylin and eosin. All slides were blindly evaluated for histologic treatment-related effects (Supplementary Table 1) by a board-certified veterinary pathologist.

[2] = target: Antares (Oplophorus gracilirostris, UniProt Q9GV45, A31E/A60N/A81I/F95D/I117V/K70R/L54V/L99Q/M102K/N193R/P142E/Q151K/Q38R/Q45L/V71I/Y165I); test: Comparison of bioluminescence in luciferase-transduced (AAV) mouse brain hippocampus; type: in vivo, J:NU mice; parameters: P2A-mNeonGreen (self-cleaving; mNeonGreen is separated and a P2A remnant stays on Antares) (C); expressed in transfected cells; host or cells: hippocampus of J:NU mice transduced with AAV.DJ
Chain of Antares (Q9GV45 other isoform, or with tags, fused parts or gaps with the stated changes): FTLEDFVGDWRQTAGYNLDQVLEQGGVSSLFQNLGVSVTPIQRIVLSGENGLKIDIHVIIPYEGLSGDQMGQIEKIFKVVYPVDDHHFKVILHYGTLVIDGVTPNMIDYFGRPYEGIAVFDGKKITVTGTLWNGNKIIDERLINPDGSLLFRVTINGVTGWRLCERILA
Description: For AAV packaging, pAAV-CMV-AkaLuc-P2A-mNeonGreen-WPRE plasmid and pAAV-CMV-Antares-P2A-mNeonGreen-WPRE were amplified and purified by a PureLink Expi endotoxin-free maxi plasmid purification kit (Invitrogen) and were sent to Stanford Gene Vector and Virus Core to produce and titer AAV.DJ vectors. Under sterile conditions, 12-week-old male J:NU mice (Jackson Laboratory, 007850) were anesthetized with isoflurane and secured in a stereotaxic frame (RWD Life Science), and a hole the size of the needle was drilled through the skull. A Hamilton syringe with a 33-gauge needle was inserted at anteroposterior −2.2 mm, mediolateral +1.7 mm and dorsoventral −1.7 mm. […] The needle was left in place for 3 min after each injection to minimize upward flow of viral solution. Two to 3 weeks after AAV infection, mice were injected i.p. with the indicated amount of CFz, Akalumine or FFz and imaged on the Ami HT (binning of 1 × 1 and exposure time of 10 s).

O=c1c(Cc2ccco2)nc2c(Cc3ccccc3)[nH]c(-c3cccc(F)c3F)cn1-2 [compound 6, cephalofurimazine]
weight loss ([1]; 1.3 µmol CFz with 12 mg P-407, daily for 3 or 5 d): < 5%
effects on organ tissues after daily administration ([1]; 1.3 µmol CFz with 12 mg P-407, daily i.p. for 3 or 5 d, listed as CFz): mild and well tolerated and Renal lesions were minimal to absent
toxicity after three daily i.p. injections ([1]; 4.2 µmol CFz with 20 mg P-407): noticeably toxic to organs
toxicity after a single i.p. injection [1]: minimal effects on heart and kidney tissues without weight loss
toxicity after a single i.p. injection ([1]; listed as CFz): minimal toxicity
BMH, brain multifocal hemorrhage score ([1]; 1 day, 4.2 µmol, 20 mg P-407): 0
HMNH, heart myocardial necrosis and hemorrhage score ([1]; 1 day, 4.2 µmol, 20 mg P-407): 1 (<5% of myocardium affected) and 0 (2×)
HN, hepatocellular necrosis score ([1]; 1 day, 4.2 µmol, 20 mg P-407): 0
LC, Liver capsule score ([1]; 1 day, 4.2 µmol, 20 mg P-407): 0
RTD, renal tubular dilation score ([1]; 1 day, 4.2 µmol, 20 mg P-407): 0 and 1 (<5% of tubules affected) (2×)
RTDR, renal tubular degeneration and regeneration score ([1]; 1 day, 4.2 µmol, 20 mg P-407): 0 (2×) and 1 (<5% of tubules affected)
SRPHMV, splenic red pulp histiocytosis with microvesicular vacuolation score ([1]; 1 day, 4.2 µmol, 20 mg P-407): 0
Total organ score ([1]; 1 day, 4.2 µmol, 20 mg P-407): 2 (2×) and 1
∆ weight ([1]; 1 day, 4.2 µmol, 20 mg P-407): –0.7% and +0.3% and +1.4%
BMH, brain multifocal hemorrhage score ([1]; 3 days, 1.3 µmol, 12 mg P-407): 0
HMNH, heart myocardial necrosis and hemorrhage score ([1]; 3 days, 1.3 µmol, 12 mg P-407): 1 (<5% of myocardium affected)
HN, hepatocellular necrosis score ([1]; 3 days, 1.3 µmol, 12 mg P-407): 0 (2×) and 2
LC, Liver capsule score ([1]; 3 days, 1.3 µmol, 12 mg P-407): 0
RTD, renal tubular dilation score ([1]; 3 days, 1.3 µmol, 12 mg P-407): 1 (<5% of tubules affected) (2×) and 0
RTDR, renal tubular degeneration and regeneration score ([1]; 3 days, 1.3 µmol, 12 mg P-407): 1 (<5% of tubules affected)
SRPHMV, splenic red pulp histiocytosis with microvesicular vacuolation score ([1]; 3 days, 1.3 µmol, 12 mg P-407): 0
Total organ score ([1]; 3 days, 1.3 µmol, 12 mg P-407): 3 and 2 and 5
∆ weight ([1]; 3 days, 1.3 µmol, 12 mg P-407): –2.2%; also recorded: –0.4%; also recorded: –1.1%
BMH, brain multifocal hemorrhage score ([1]; 3 days, 4.2 µmol, 20 mg P-407): 0
HMNH, heart myocardial necrosis and hemorrhage score ([1]; 3 days, 4.2 µmol, 20 mg P-407): 2 (5-10% affected) (2×) and 1 (<5% of myocardium affected)
HN, hepatocellular necrosis score ([1]; 3 days, 4.2 µmol, 20 mg P-407): 0
LC, Liver capsule score ([1]; 3 days, 4.2 µmol, 20 mg P-407): 0
RTD, renal tubular dilation score ([1]; 3 days, 4.2 µmol, 20 mg P-407): 3 (25%–50% of tubules affected) (2×) and 2 (5%–25% of tubules affected)
RTDR, renal tubular degeneration and regeneration score ([1]; 3 days, 4.2 µmol, 20 mg P-407): 3 (25%–50% of tubules affected) and 2 (5%–25% of tubules affected) (2×)
SRPHMV, splenic red pulp histiocytosis with microvesicular vacuolation score ([1]; 3 days, 4.2 µmol, 20 mg P-407): 1
Total organ score ([1]; 3 days, 4.2 µmol, 20 mg P-407): 9 (2×) and 6
∆ weight ([1]; 3 days, 4.2 µmol, 20 mg P-407): –8.3%; also recorded: –3.7%; also recorded: –3.0%
BMH, brain multifocal hemorrhage score ([1]; 5 days, 1.3 µmol, 12 mg P-407): 0
HMNH, heart myocardial necrosis and hemorrhage score ([1]; 5 days, 1.3 µmol, 12 mg P-407): 0 (2×) and 1 (<5% of myocardium affected)
HN, hepatocellular necrosis score ([1]; 5 days, 1.3 µmol, 12 mg P-407): 0
LC, Liver capsule score ([1]; 5 days, 1.3 µmol, 12 mg P-407): 0
RTD, renal tubular dilation score ([1]; 5 days, 1.3 µmol, 12 mg P-407): 0
RTDR, renal tubular degeneration and regeneration score ([1]; 5 days, 1.3 µmol, 12 mg P-407): 1 (<5% of tubules affected) (2×) and 0
SRPHMV, splenic red pulp histiocytosis with microvesicular vacuolation score ([1]; 5 days, 1.3 µmol, 12 mg P-407): 1
Total organ score ([1]; 5 days, 1.3 µmol, 12 mg P-407): 1 (2×) and 3
∆ weight ([1]; 5 days, 1.3 µmol, 12 mg P-407): –3.2%; also recorded: –4.6%; also recorded: –1.8%
peak signal relative to 3.0 µmol of AkaLumine ([2]; 1.3 µmol CFz i.p., Antares and AkaLuc AAV co-infected hippocampus): comparable peak signal
brightness relative to 3 µmol of AkaLumine ([2]; CFz dose 3 µmol i.p., Antares and AkaLuc AAV co-infected hippocampus, listed as CFz): threefold more signal; also recorded: about threefold higher
brightness relative to FFz ([2]; i.p., Antares AAV in hippocampus): brighter than FFz by at least an order of magnitude
